Results from publication PMC4503722, “Novel Phenotypic Outcomes Identified for a Public Collection of Approved Drugs from a Publicly Accessible Panel of Assays” (PLoS ONE, 2015).
Like-named read-outs stand apart in the source and are kept apart here.

Experiments:
[1] = tested on: HCT116 cells treated with a GSK3β inhibitor; assay: cells; assay type: cell-based; settings: for IC50: read-out: GSK3b inh pretreated_Viability ATP HCT116 summarized IC50; for IC50/EC50, GSK3b inh pretreated_Viability ATP HCT116 (assay number 26): GSK3b inh pretreated
Colo320 = assay: cells; assay type: cell-based; settings: for IC50: read-out: Basal_Viability ATP Colo 320 summarized IC50
HT-29 = assay: cells; assay type: cell-based; settings: for IC50: read-out: Basal_Viability ATP HT-29 summarized IC50
SW480 = assay: cells; assay type: cell-based; settings: for IC50: read-out: Basal_Viability ATP SW480 summarized IC50
HCT116 = assay: cells; assay type: cell-based; settings: for IC50: read-out: Basal_Viability ATP HCT116 summarized IC50
HeLa cells = assay: cells; assay type: cell-based
DLD-1 = assay: cells; assay type: cell-based; settings: for IC50: read-out: Basal_Viability ATP DLD-1 summarized IC50
SNU-C1 = assay: cells; assay type: cell-based; settings: for IC50: read-out: Basal_Viability ATP SNU-C1 summarized IC50
RKO = assay: cells; assay type: cell-based; settings: for IC50: read-out: Basal_Viability ATP RKO summarized IC50
[2] = tested on: ECFC/ADSC co-culture cell nuclei number
[3] = tested on: endothelial tube formation in co-cultures of ECFCs and ADSCs treated with VEGF; assay: cells; assay type: cell-based, human
[4] = assay number 26, GSK3b inhibitor pretreated
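Throughout, for Hela CellCycMod PI 4N summarized IC50: value tracks stimulation of 4N DNA content.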

## O=C(O)CCc1nc2ccccc2[nH]1 [NCGC00013414-04]
[1]; [4]
  IC50: 2.2 µM
Colo320; assay number 27, basal
  IC50: > 20 µM
HT-29; assay number 28, basal
  IC50: > 20 µM
SW480; assay number 24, basal
  IC50: > 20 µM
HCT116; assay number 25, basal
  IC50: > 20 µM
HeLa cells; assay number 14, 2N, read-out: Hela CellCycMod PI 2N summarized IC50
  IC50: > 10 µM
HeLa cells; assay number 15, S phase, read-out: Hela CellCycMod PI S Phase summarized IC50
  IC50: > 10 µM
HeLa cells; assay number 16, 4N, read-out: Hela CellCycMod PI 4N summarized IC50
  IC50: > 10 µM
HeLa cells; assay number 17, MI, read-out: Hela CellCycMod PI MI summarized IC50
  IC50: > 10 µM
HeLa cells; assay number 18, cell number, read-out: Hela CellCycMod PI Cell Number summarized IC50
  IC50: > 10 µM
DLD-1; assay number 23, basal
  IC50: 2.42 µM
SNU-C1; assay number 30, basal
  IC50: > 20 µM
RKO; assay number 29, basal
  IC50: > 20 µM

## CN1CCC(=C2c3ccccc3C=Cc3ccccc32)CC1 [NCGC00015252-12]
[1]; [4]
  GSK3b inh pretreated_Viability ATP HCT116 IC50/EC50: > 20 µM
Colo320; assay number 27, basal
  Basal_Viability ATP Colo 320 IC50/EC50: > 20 µM
HT-29; assay number 28, basal
  Basal_Viability ATP HT-29 IC50/EC50: > 20 µM
SW480; assay number 24, basal
  Basal_Viability ATP SW480 IC50/EC50: 5.9167 µM
HCT116; assay number 25, basal
  Basal_Viability ATP HCT116 IC50/EC50: > 20 µM
DLD-1; assay number 23, basal
  Basal_Viability ATP DLD-1 IC50/EC50: > 20 µM
SNU-C1; assay number 30, basal
  Basal_Viability ATP SNU-C1 IC50/EC50: 10.7827 µM
RKO; assay number 29, basal
  Basal_Viability ATP RKO IC50/EC50: 11.2853 µM

## N#CC(C#N)=Cc1ccc(O)c(O)c1 [NCGC00016043-08]
[1]
  IC50/EC50, GSK3b inh pretreated_Viability ATP HCT116 (assay number 26): > 20 µM
Colo320; basal
  IC50/EC50, Basal_Viability ATP Colo 320 (assay number 27): 6.7406 µM
HT-29; basal
  IC50/EC50, Basal_Viability ATP HT-29 (assay number 28): > 20 µM
SW480; basal
  IC50/EC50, Basal_Viability ATP SW480 (assay number 24): > 20 µM
HCT116; basal
  IC50/EC50, Basal_Viability ATP HCT116 (assay number 25): > 20 µM
DLD-1; basal
  IC50/EC50, Basal_Viability ATP DLD-1 (assay number 23): > 20 µM
SNU-C1; basal
  IC50/EC50, Basal_Viability ATP SNU-C1 (assay number 30): > 20 µM
RKO; basal
  IC50/EC50, Basal_Viability ATP RKO (assay number 29): 3.7756 µM

## Cc1nnc(NS(=O)(=O)c2ccc(N)cc2)s1 [NCGC00016407-08]
[1]; [4]
  IC50: > 20 µM
Colo320; assay number 27, basal
  IC50: > 20 µM
HT-29; assay number 28, basal
  IC50: > 20 µM
SW480; assay number 24, basal
  IC50: > 20 µM
HCT116; assay number 25, basal
  IC50: > 20 µM
DLD-1; assay number 23, basal
  IC50: > 20 µM
SNU-C1; assay number 30, basal
  IC50: > 20 µM
RKO; assay number 29, basal
  IC50: > 20 µM

## O=C1C(=O)c2ccccc2C(O)=C1C1CCC(c2ccc(Cl)cc2)CC1 (stereo not shown) [NCGC00016961-06]
[2]
  VEGF_ADSC\ECFC Angio Hoechst NucArea IC50/EC50: > 10 µM
Colo320; assay number 27, basal
  Basal_Viability ATP Colo 320 IC50/EC50: 0.1764 µM
HT-29; assay number 28, basal
  Basal_Viability ATP HT-29 IC50/EC50: 0.4112 µM
SW480; assay number 24, basal
  Basal_Viability ATP SW480 IC50/EC50: 0.0946 µM
HCT116; assay number 25, basal
  Basal_Viability ATP HCT116 IC50/EC50: 0.1384 µM
HeLa cells; assay number 14, 2N
  Hela CellCycMod PI 2N IC50/EC50: > 10 µM
HeLa cells; assay number 16, 4N
  Hela CellCycMod PI 4N IC50/EC50: > 10 µM
HeLa cells; assay number 17, MI
  Hela CellCycMod PI MI IC50/EC50: > 10 µM
HeLa cells; assay number 18, cell number
  Hela CellCycMod PI Cell Number IC50/EC50: > 10 µM
[3]
  VEGF_ADSC\ECFC Angio CD31 TubeArea IC50/EC50: 5.1845 µM
DLD-1; assay number 23, basal
  Basal_Viability ATP DLD-1 IC50/EC50: 0.0838 µM
SNU-C1; assay number 30, basal
  Basal_Viability ATP SNU-C1 IC50/EC50: 0.3675 µM
RKO; assay number 29, basal
  Basal_Viability ATP RKO IC50/EC50: 0.1142 µM

## C1CCC(C(CC2CCCCN2)C2CCCCC2)CC1.O=C(O)/C=C\C(=O)O (stereo not shown) [NCGC00018261-06]
[1]
  GSK3b inh pretreated_Viability ATP HCT116 IC50/EC50: 7.4207 µM
Colo320
  Basal_Viability ATP Colo 320 IC50/EC50: 8.8632 µM
HT-29
  Basal_Viability ATP HT-29 IC50/EC50: 6.8652 µM
SW480
  Basal_Viability ATP SW480 IC50/EC50: 5.7603 µM
HCT116
  Basal_Viability ATP HCT116 IC50/EC50: > 20 µM
DLD-1
  Basal_Viability ATP DLD-1 IC50/EC50: > 20 µM
SNU-C1
  Basal_Viability ATP SNU-C1 IC50/EC50: 2.48 µM
RKO
  Basal_Viability ATP RKO IC50/EC50: 7.8491 µM

## CCCCCCCCCCCCCCCCOP(=O)([O-])OCC[N+](C)(C)C [NCGC00095169-05]
[1]; [4]
  GSK3b inh pretreated_Viability ATP HCT116 IC50/EC50: 1.476 µM
Colo320; assay number 27, basal
  Basal_Viability ATP Colo 320 IC50/EC50: 1.49 µM
HT-29; assay number 28, basal
  Basal_Viability ATP HT-29 IC50/EC50: 1.955 µM
SW480; assay number 24, basal
  Basal_Viability ATP SW480 IC50/EC50: 0.4782 µM
HCT116; assay number 25, basal
  Basal_Viability ATP HCT116 IC50/EC50: 3.393 µM
DLD-1; assay number 23, basal
  Basal_Viability ATP DLD-1 IC50/EC50: 1.23 µM
SNU-C1; assay number 30, basal
  Basal_Viability ATP SNU-C1 IC50/EC50: 0.9649 µM
RKO; assay number 29, basal
  Basal_Viability ATP RKO IC50/EC50: 0.4372 µM

## Nc1ccc(C(=O)Nc2ccccc2N)cc1 [NCGC00160373-02]
[1]
  IC50/EC50, GSK3b inh pretreated_Viability ATP HCT116 (assay number 26): 12.8536 µM
Colo320; basal
  IC50/EC50, Basal_Viability ATP Colo 320 (assay number 27): > 20 µM
HT-29; basal
  IC50/EC50, Basal_Viability ATP HT-29 (assay number 28): > 20 µM
SW480; basal
  IC50/EC50, Basal_Viability ATP SW480 (assay number 24): > 20 µM
HCT116; basal
  IC50/EC50, Basal_Viability ATP HCT116 (assay number 25): > 6.6667 µM
DLD-1; basal
  IC50/EC50, Basal_Viability ATP DLD-1 (assay number 23): > 20 µM
SNU-C1; basal
  IC50/EC50, Basal_Viability ATP SNU-C1 (assay number 30): > 20 µM
RKO; basal
  IC50/EC50, Basal_Viability ATP RKO (assay number 29): > 20 µM

## COc1ccc(CN2CCN(C(c3ccc(F)cc3)c3ccc(F)cc3)CC2)c(OC)c1OC.Cl.Cl [NCGC00164543-02]
[1]; [4]
  GSK3b inh pretreated_Viability ATP HCT116 IC50/EC50: 2.7677 µM
Colo320; assay number 27
  Basal_Viability ATP Colo 320 IC50/EC50: 2.817 µM
HT-29; assay number 28
  Basal_Viability ATP HT-29 IC50/EC50: 2.926 µM
SW480; assay number 24
  Basal_Viability ATP SW480 IC50/EC50: 3.3247 µM
HCT116; assay number 25, basal
  Basal_Viability ATP HCT116 IC50/EC50: 1.7018 µM
DLD-1; assay number 23
  Basal_Viability ATP DLD-1 IC50/EC50: 3.1331 µM
SNU-C1; assay number 30
  Basal_Viability ATP SNU-C1 IC50/EC50: 0.4428 µM
RKO; assay number 29
  Basal_Viability ATP RKO IC50/EC50: 3.6952 µM
